# In ChEMBL document CHEMBL3885881, “DrugMatrix”:
# Species: Rattus norvegicus
# Assay: DrugMatrix - Regimen: Daily Repeat
# Type: toxicity, organism-based, Sprague-Dawley
# Parameters: regimen Daily Repeat, gender Male, age 6-8 weeks
# Settings: in vivo, po, route oral GAVAGE, vehicle .5 % CMC; for ABSOLUTE BASOPHIL / ABSOLUTE EOSINOPHIL / ABSOLUTE LYMPHOCYTE / ABSOLUTE MONOCYTE / ABSOLUTE SEGMENTED NEUTROPHIL / BASOPHIL / EOSINOPHIL / ERYTHROCYTE COUNT / HEMATOCRIT / HEMOGLOBIN / LEUKOCYTE COUNT / LYMPHOCYTE / MEAN CORPUSCULAR HEMOGLOBIN / MEAN CORPUSCULAR HEMOGLOBIN CONCENTRATION / MEAN CORPUSCULAR VOLUME / MONOCYTE / NEUTROPHIL / NUCLEATED RED BLOOD CELLS / PLATELET COUNT: tissue Blood; for ALANINE AMINOTRANSFERASE / ALBUMIN / ALKALINE PHOSPHATASE / ASPARTATE AMINOTRANSFERASE / BLOOD UREA NITROGEN / CARBON DIOXIDE / CHLORIDE / CHOLESTEROL / CREATINE PHOSPHOKINASE / CREATININE / GLUCOSE / LACTATE DEHYDROGENASE / LIPASE / PHOSPHORUS / POTASSIUM / SODIUM / TOTAL BILIRUBIN / TOTAL PROTEIN / URIC ACID: tissue Plasma
# [1] = 0 mg/kg, 72 h, dose level Control, time 3 day
# [2] = 0 mg/kg, 120 h, dose level Control, time 5 day
# [3] = 1200 mg/kg, 72 h, dose level High, time 3 day
smiles,measurement,setting,value
CCC[C@@H]1C[C@@H](C(=O)N[C@@H]([C@H]2O[C@H](SC)[C@H](O)[C@@H](O)[C@H]2O)[C@@H](C)O)N(C)C1 [LINCOMYCIN],ABSOLUTE BASOPHIL,[1],0 CELLS/uL
same,ABSOLUTE EOSINOPHIL,[1],0 CELLS/uL
same,ABSOLUTE LYMPHOCYTE,[1],12269.67 CELLS/uL
same,ABSOLUTE MONOCYTE,[1],160.33 CELLS/uL
same,ABSOLUTE SEGMENTED NEUTROPHIL,[1],970 CELLS/uL
same,BASOPHIL,[1],0%
same,EOSINOPHIL,[1],0%
same,ERYTHROCYTE COUNT,[1],5.76 x10E6/uL
same,HEMATOCRIT,[1],36.57%
same,HEMOGLOBIN,[1],14.22 G/DL
same,LEUKOCYTE COUNT,[1],13.4 x10E3/uL
same,LYMPHOCYTE,[1],91.67%
same,MEAN CORPUSCULAR HEMOGLOBIN,[1],24.67 pg
same,MEAN CORPUSCULAR HEMOGLOBIN CONCENTRATION,[1],38.85 G/DL
same,MEAN CORPUSCULAR VOLUME,[1],63.52 fL
same,MONOCYTE,[1],1.17%
same,NEUTROPHIL,[1],7.17%
same,NUCLEATED RED BLOOD CELLS,[1],0.33 /100WBC
same,PLATELET COUNT,[1],1250.83 x10E3/uL
same,ALANINE AMINOTRANSFERASE,[1],49.17 u/L
same,ALBUMIN,[1],4.33 G/DL
same,ALKALINE PHOSPHATASE,[1],378.5 u/L
same,ASPARTATE AMINOTRANSFERASE,[1],82.17 u/L
same,BLOOD UREA NITROGEN,[1],15 mg/dL
same,CARBON DIOXIDE,[1],34.33 mmol/L
same,CHLORIDE,[1],99.17 MEQ/L
same,CHOLESTEROL,[1],71.17 mg/dL
same,CREATINE PHOSPHOKINASE,[1],258.67 u/L
same,CREATININE,[1],0.18 mg/dL
same,GLUCOSE,[1],142.67 mg/dL
same,LACTATE DEHYDROGENASE,[1],154.33 u/L
same,LIPASE,[1],9 u/L
same,PHOSPHORUS,[1],11.67 mg/dL
same,POTASSIUM,[1],7.13 MEQ/L
same,SODIUM,[1],142.22 MEQ/L
same,TOTAL BILIRUBIN,[1],0.18 mg/dL
same,TOTAL PROTEIN,[1],5.77 G/DL
same,URIC ACID,[1],1.55 mg/dL
same,ABSOLUTE BASOPHIL,[2],0 CELLS/uL
same,ABSOLUTE EOSINOPHIL,[2],23.33 CELLS/uL
same,ABSOLUTE LYMPHOCYTE,[2],14943.67 CELLS/uL
same,ABSOLUTE MONOCYTE,[2],32 CELLS/uL
same,ABSOLUTE SEGMENTED NEUTROPHIL,[2],1084.33 CELLS/uL
same,BASOPHIL,[2],0%
same,EOSINOPHIL,[2],0.17%
same,ERYTHROCYTE COUNT,[2],5.71 x10E6/uL
same,HEMATOCRIT,[2],35.28%
same,HEMOGLOBIN,[2],14.27 G/DL
same,LEUKOCYTE COUNT,[2],16.08 x10E3/uL
same,LYMPHOCYTE,[2],93%
same,MEAN CORPUSCULAR HEMOGLOBIN,[2],25.02 pg
same,MEAN CORPUSCULAR HEMOGLOBIN CONCENTRATION,[2],40.43 G/DL
same,MEAN CORPUSCULAR VOLUME,[2],61.82 fL
same,MONOCYTE,[2],0.17%
same,NEUTROPHIL,[2],6.67%
same,NUCLEATED RED BLOOD CELLS,[2],0.33 /100WBC
same,PLATELET COUNT,[2],1274 x10E3/uL
same,ALANINE AMINOTRANSFERASE,[2],54.17 u/L
same,ALBUMIN,[2],4.22 G/DL
same,ALKALINE PHOSPHATASE,[2],373.17 u/L
same,ASPARTATE AMINOTRANSFERASE,[2],81.83 u/L
same,BLOOD UREA NITROGEN,[2],16.67 mg/dL
same,CARBON DIOXIDE,[2],30.33 mmol/L
same,CHLORIDE,[2],99 MEQ/L
same,CHOLESTEROL,[2],71 mg/dL
same,CREATINE PHOSPHOKINASE,[2],273.5 u/L
same,CREATININE,[2],0.22 mg/dL
same,GLUCOSE,[2],141.83 mg/dL
same,LACTATE DEHYDROGENASE,[2],153.67 u/L
same,LIPASE,[2],10.33 u/L
same,PHOSPHORUS,[2],11.38 mg/dL
same,POTASSIUM,[2],7.08 MEQ/L
same,SODIUM,[2],142.75 MEQ/L
same,TOTAL BILIRUBIN,[2],0.18 mg/dL
same,TOTAL PROTEIN,[2],6.1 G/DL
same,URIC ACID,[2],1.67 mg/dL
same,ABSOLUTE BASOPHIL,[3],0 CELLS/uL
same,ABSOLUTE EOSINOPHIL,[3],0 CELLS/uL
same,ABSOLUTE LYMPHOCYTE,[3],14618 CELLS/uL
same,ABSOLUTE MONOCYTE,[3],0 CELLS/uL
same,ABSOLUTE SEGMENTED NEUTROPHIL,[3],1248.67 CELLS/uL
same,BASOPHIL,[3],0%
same,EOSINOPHIL,[3],0%
same,ERYTHROCYTE COUNT,[3],5.99 x10E6/uL
same,HEMATOCRIT,[3],37.8%
same,HEMOGLOBIN,[3],15 G/DL
same,LEUKOCYTE COUNT,[3],15.87 x10E3/uL
same,LYMPHOCYTE,[3],92.33%
same,MEAN CORPUSCULAR HEMOGLOBIN,[3],25.1 pg
same,MEAN CORPUSCULAR HEMOGLOBIN CONCENTRATION,[3],39.73 G/DL
same,MEAN CORPUSCULAR VOLUME,[3],63.2 fL
same,MONOCYTE,[3],0%
same,NEUTROPHIL,[3],7.67%
same,NUCLEATED RED BLOOD CELLS,[3],0 /100WBC
same,PLATELET COUNT,[3],1182.33 x10E3/uL
same,ALANINE AMINOTRANSFERASE,[3],58.67 u/L
same,ALBUMIN,[3],4.3 G/DL
same,ALKALINE PHOSPHATASE,[3],350.33 u/L
same,ASPARTATE AMINOTRANSFERASE,[3],86.33 u/L
same,BLOOD UREA NITROGEN,[3],17.33 mg/dL
same,CARBON DIOXIDE,[3],33.33 mmol/L
same,CHLORIDE,[3],99 MEQ/L
same,CHOLESTEROL,[3],100.67 mg/dL
same,CREATINE PHOSPHOKINASE,[3],190.67 u/L
same,CREATININE,[3],0.21 mg/dL
same,GLUCOSE,[3],155.33 mg/dL
same,LACTATE DEHYDROGENASE,[3],170.67 u/L
same,LIPASE,[3],9.67 u/L
same,PHOSPHORUS,[3],12.27 mg/dL
same,POTASSIUM,[3],7.02 MEQ/L
same,SODIUM,[3],145.6 MEQ/L
same,TOTAL BILIRUBIN,[3],0.23 mg/dL
same,TOTAL PROTEIN,[3],6.23 G/DL
same,URIC ACID,[3],1.33 mg/dL
